Strand notation (5' to 3'): a small letter for the sugar, then the base; units joined by * are phosphorothioate-linked, units joined directly phosphodiester-linked; [ ] holds rarer units or linkages, { } end groups; capitals alone tell only the bases. e = 2'-O-(2-methoxyethyl) (MOE); [5mC] = 5-methylcytosine; d = 2'-deoxy (DNA)

The first data set concerns mouse PI3K p85. The data set can be described thus: Inhibition of mouse PI3K p85 mRNA levels by antisense oligonucleotides, real-time quantitative RT-PCR. It is filed as cell-based. More on the design: concentration or dose not given beside the values. The conditions noted are these: chimeric phosphorothioate 2′-MOE gapmers, averaged from two experiments. The method, then:
Cells were harvested 16 hours after oligonucleotide treatment.
Target sites are indicated by nucleotide numbers, as given in the sequence source reference (Genbank accession no. U50413; SEQ ID NO: 48), to which the oligonucleotide binds.
Cytidine residues are 5-methylcytidines throughout the oligonucleotides.
Data were obtained by real-time quantitative RT-PCR as described in other examples herein and are averaged from two experiments. […] If present, “N.D.” indicates “no data”.
“131422 (antisense e[5mC]*e[5mC]*eA*eT*eA*dG*d[5mC]*d[5mC]*dG*dG*dT*dG*dG*d[5mC]*dA*eG*eT*e[5mC]*eT*eT) [compound 131422]”: the “% Inhib. of mouse PI3K p85 mRNA levels” value is 40%. With “131416 (antisense eT*eG*e[5mC]*eT*eG*dG*dT*dG*d[5mC]*dT*dG*dG*d[5mC]*dT*dG*eT*e[5mC]*eT*e[5mC]*eT) [compound 131416]”, the “% Inhib. of mouse PI3K p85 mRNA levels” value came out at 68%.

On to “131418 (antisense e[5mC]*e[5mC]*eT*eG*e[5mC]*dT*dG*dG*dT*dA*dT*dT*dT*dG*dG*eA*e[5mC]*eA*e[5mC]*eT) [compound 131418]”, for which the “% Inhib. of mouse PI3K p85 mRNA levels” value is 50%. Same read-out and setting: in the case of “131410 (antisense e[5mC]*e[5mC]*eT*eG*eG*d[5mC]*d[5mC]*dA*dT*d[5mC]*dA*d[5mC]*dT*dG*dA*eA*eT*e[5mC]*e[5mC]*eA) [compound 131410]” it was 95%; in that of “131420 (antisense e[5mC]*eG*eA*eT*e[5mC]*dT*d[5mC]*dT*d[5mC]*dG*dG*dT*dA*d[5mC]*dT*e[5mC]*eA*eG*e[5mC]*eT) [compound 131420]”, 79%. Consider “131412 (antisense e[5mC]*eT*eT*eG*e[5mC]*dT*dG*d[5mC]*dT*d[5mC]*d[5mC]*dG*dT*dG*dT*e[5mC]*eA*eG*e[5mC]*eT) [compound 131412]”, for which the “% Inhib. of mouse PI3K p85 mRNA levels” value worked out at 85%.

In the case of “cttgctgctccgtgtcagct (e[5mC]*eT*eT*eG*e[5mC]*dT*dG*d[5mC]*dT*d[5mC]*d[5mC]*dG*dT*dG*dT*e[5mC]*eA*eG*e[5mC]*eT; antisense) [ISIS 131412]”, the “% Inhib. of mouse PI3K p85 mRNA levels” value was “at least 60%”.

For the substance “cgatctctcggtactcagct (e[5mC]*eG*eA*eT*e[5mC]*dT*d[5mC]*dT*d[5mC]*dG*dG*dT*dA*d[5mC]*dT*e[5mC]*eA*eG*e[5mC]*eT; antisense) [ISIS 131420]”, the “% Inhib. of mouse PI3K p85 mRNA levels” value is “at least 60%”. For “131421 (antisense eG*e[5mC]*eT*e[5mC]*e[5mC]*d[5mC]*dG*dA*d[5mC]*dA*dT*dT*d[5mC]*d[5mC]*dA*e[5mC]*eG*eT*e[5mC]*eT) [compound 131421]”, the “% Inhib. of mouse PI3K p85 mRNA levels” value is 65%. Turning to “ggtgtaagagtgtaatcgcc (eG*eG*eT*eG*eT*dA*dA*dG*dA*dG*dT*dG*dT*dA*dA*eT*e[5mC]*eG*e[5mC]*e[5mC]; antisense) [ISIS 131417]”, the “% Inhib. of mouse PI3K p85 mRNA levels” value is on record as “at least 60%”.

With “131426 (antisense eG*e[5mC]*eA*eT*e[5mC]*dA*dA*dT*dG*dT*dT*d[5mC]*dT*d[5mC]*dT*e[5mC]*eA*eA*eA*eG) [compound 131426]”, the “% Inhib. of mouse PI3K p85 mRNA levels” value was 75%.

For the substance “131413 (antisense eT*e[5mC]*eT*e[5mC]*e[5mC]*dA*dA*dG*dT*d[5mC]*d[5mC]*dA*d[5mC]*dT*dG*eA*e[5mC]*eG*e[5mC]*eG) [compound 131413]”, the “% Inhib. of mouse PI3K p85 mRNA levels” value was 56%.

In the case of “131419 (antisense eG*e[5mC]*eT*e[5mC]*e[5mC]*dT*dG*dG*dG*dT*dT*dT*dG*dG*d[5mC]*eA*eT*eT*eG*eT) [compound 131419]”, the “% Inhib. of mouse PI3K p85 mRNA levels” value is reported as 45%.

As to “131407 (antisense e[5mC]*eG*e[5mC]*eT*e[5mC]*d[5mC]*dA*d[5mC]*dT*d[5mC]*dT*d[5mC]*dA*dG*d[5mC]*eT*eT*e[5mC]*eA*e[5mC]) [compound 131407]”, the “% Inhib. of mouse PI3K p85 mRNA levels” value is on record as 85%. On the same count and under the same terms, in the case of “ccatctgtcctccatcaacg (e[5mC]*e[5mC]*eA*eT*e[5mC]*dT*dG*dT*d[5mC]*d[5mC]*dT*d[5mC]*d[5mC]*dA*dT*e[5mC]*eA*eA*e[5mC]*eG; antisense) [ISIS 131408]” it was “at least 60%”; in that of “131414 (antisense eT*e[5mC]*eG*eG*e[5mC]*dG*dA*dG*dA*dT*dA*dG*d[5mC]*dG*dT*eT*eT*eG*eA*eA) [compound 131414]”, 73%; in that of “atactgaagcgtaagccaac (eA*eT*eA*e[5mC]*eT*dG*dA*dA*dG*d[5mC]*dG*dT*dA*dA*dG*e[5mC]*e[5mC]*eA*eA*e[5mC]; antisense) [ISIS 131415]”, “at least 60%”.

As for “gctcccgacattccacgtct (eG*e[5mC]*eT*e[5mC]*e[5mC]*d[5mC]*dG*dA*d[5mC]*dA*dT*dT*d[5mC]*d[5mC]*dA*e[5mC]*eG*eT*e[5mC]*eT; antisense) [ISIS 131421]”, the “% Inhib. of mouse PI3K p85 mRNA levels” value was “at least 60%”. With “131411 (antisense e[5mC]*e[5mC]*eA*eG*eT*dG*dG*dT*dT*dT*d[5mC]*dA*dT*dT*dG*eT*eA*eG*e[5mC]*e[5mC]) [compound 131411]”, the “% Inhib. of mouse PI3K p85 mRNA levels” value worked out at 90%. In the case of “gcatcaatgttctctcaaag (eG*e[5mC]*eA*eT*e[5mC]*dA*dA*dT*dG*dT*dT*d[5mC]*dT*d[5mC]*dT*e[5mC]*eA*eA*eA*eG; antisense) [ISIS 131426]”, the “% Inhib. of mouse PI3K p85 mRNA levels” value was “at least 60%”. As to “131423 (antisense eT*eT*eT*eG*e[5mC]*dT*dT*d[5mC]*dT*d[5mC]*dA*dG*dA*dG*dG*e[5mC]*e[5mC]*eT*eT*eG) [compound 131423]”, the “% Inhib. of mouse PI3K p85 mRNA levels” value was determined as 40%. On the same count and under the same terms, in the case of “gcactcatgtctgcagctct (eG*e[5mC]*eA*e[5mC]*eT*d[5mC]*dA*dT*dG*dT*d[5mC]*dT*dG*d[5mC]*dA*eG*e[5mC]*eT*e[5mC]*eT; antisense) [ISIS 131409]” it was “at least 60%”; in that of “131409 (antisense eG*e[5mC]*eA*e[5mC]*eT*d[5mC]*dA*dT*dG*dT*d[5mC]*dT*dG*d[5mC]*dA*eG*e[5mC]*eT*e[5mC]*eT) [compound 131409]”, 85%. For “cgctccactctcagcttcac (e[5mC]*eG*e[5mC]*eT*e[5mC]*d[5mC]*dA*d[5mC]*dT*d[5mC]*dT*d[5mC]*dA*dG*d[5mC]*eT*eT*e[5mC]*eA*e[5mC]; antisense) [ISIS 131407]”, the “% Inhib. of mouse PI3K p85 mRNA levels” value was “at least 60%”. As to “tcggcgagatagcgtttgaa (eT*e[5mC]*eG*eG*e[5mC]*dG*dA*dG*dA*dT*dA*dG*d[5mC]*dG*dT*eT*eT*eG*eA*eA; antisense) [ISIS 131414]”, the “% Inhib. of mouse PI3K p85 mRNA levels” value was “at least 60%”. The same measure, in the same setting: with “131415 (antisense eA*eT*eA*e[5mC]*eT*dG*dA*dA*dG*d[5mC]*dG*dT*dA*dA*dG*e[5mC]*e[5mC]*eA*eA*e[5mC]) [compound 131415]” the figure was 75%; with “131417 (antisense eG*eG*eT*eG*eT*dA*dA*dG*dA*dG*dT*dG*dT*dA*dA*eT*e[5mC]*eG*e[5mC]*e[5mC]) [compound 131417]”, 78%.

On to “tgctggtgctggctgtctct (eT*eG*e[5mC]*eT*eG*dG*dT*dG*d[5mC]*dT*dG*dG*d[5mC]*dT*dG*eT*e[5mC]*eT*e[5mC]*eT; antisense) [ISIS 131416]”, for which the “% Inhib. of mouse PI3K p85 mRNA levels” value is reported as “at least 60%”. For “131406 (antisense e[5mC]*eG*e[5mC]*eT*eG*d[5mC]*dT*dT*d[5mC]*d[5mC]*dT*d[5mC]*d[5mC]*dA*dA*e[5mC]*eT*e[5mC]*eG*eG) [compound 131406]”, the “% Inhib. of mouse PI3K p85 mRNA levels” value is listed as 56%. The same measure, in the same setting: in the case of “131408 (antisense e[5mC]*e[5mC]*eA*eT*e[5mC]*dT*dG*dT*d[5mC]*d[5mC]*dT*d[5mC]*d[5mC]*dA*dT*e[5mC]*eA*eA*e[5mC]*eG) [compound 131408]” it was 88%. In the case of “ccagtggtttcattgtagcc (e[5mC]*e[5mC]*eA*eG*eT*dG*dG*dT*dT*dT*d[5mC]*dA*dT*dT*dG*eT*eA*eG*e[5mC]*e[5mC]; antisense) [ISIS 131411]”, the “% Inhib. of mouse PI3K p85 mRNA levels” value is recorded as “at least 60%”.

The subject of the next data set is PI3K p85 mRNA. The data set can be described thus: PI3K p85 mRNA expression in liver and fat of treated mice. The note with it: male ob/ob mice; 25 mg/kg intraperitoneal once a week for two weeks; percentage of saline treated control. It is filed as in vivo, mouse. On the procedure: Ob/ob mice are used as a model of obesity. The ob/ob phenotype is due to a mutation in the leptin gene on a C57BL/6J-Lep(ob) background.
In accordance with the present invention, the effects of ISIS 131410 (SEQ ID NO: 56) on PI3K p85 mRNA expression was investigated in the ob/ob mouse model of obesity.
Mice were treated at a dose of 25 mg/kg of ISIS 141925 or 25 mg/kg of ISIS 131410.
Treatment was continued for two weeks after which the mice were sacrificed and tissues collected for mRNA analysis. RNA values were normalized and are expressed as a percentage of saline treated control.
Lean littermates (ob/wt) were also examined for mRNA reduction of PI3K p85 in the liver at doses of 25 and 50 mg/kg of ISIS 131410 or saline treatment. In these animals, at both doses, the level of expression was reduced only minimally to 80% of control.
As to “GCCACCGCCTATGTCTTCTC (listed as DNA, chemistry not given here) [ISIS 141925, reference compound]”, the “PI3K p85 mRNA level in fat” value is on record as “no reduction” and the “PI3K p85 mRNA level in liver” value was “no reduction”.

Test system in another data set: not listed separately
The data set can be described thus: Serum insulin levels in ob/ob mice. Type of data set: in vivo, mouse. The conditions noted are these: male ob/ob mice; 50 mg/kg intraperitoneal once a week for two weeks. The source says: Treatment was continued for two weeks with serum insulin levels being measured on day 14.
For “GCCACCGCCTATGTCTTCTC (listed as DNA, chemistry not given here) [ISIS 141925, reference compound]”, the “Serum insulin level at day 14” value was determined as 28 ng/mL.

Test system in another data set: not given
Assay: not given
The conditions noted are these: ob/ob mice; 25 or 50 mg/kg intraperitoneal once a week; starting level 250 mg/dL at day 1.
Consider “GCCACCGCCTATGTCTTCTC (listed as DNA, chemistry not given here) [ISIS 141925, reference compound]”, for which the “Blood glucose level at day 14” value was 240 mg/dL.

The values above are taken from patent US20040077580A1, “Antisense modulation of PI3K P85 Expression” (priority 2000, published 2004).
